# Test results as given in patent publication US20260042764A1, “COMPOSITIONS AND METHODS FOR INHIBITION OF KRAS” (TheRas, Inc., priority 2022, published 2026).
# Legend:
# SW620 cells (KRAS G12V) = assay: Cell-based pERK HTRF assay in SW620 cell (Biological Example 4); conditions: Homo sapiens, SW-620, SW620 (KRAS G12V) cells, pERK HTRF
# In short: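 Read-out: HTRF pERK signal (excitation 320 nm, emission 615 nm) from lysates of SW620 cells after 4 h compound exposure. Dose range was 9 points, half-log steps from 1 μM, in 0.25% DMSO; antibody incubation ran 4–24 h at room temperature.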
# [1] = molecular target: T1, Avi-KRAS G12V (1-169) GppNHp/RAF1 RBD-3xFLAG (52-151) (Homo sapiens, UniProt P01116, G12V); assay: Raf1-KRAS G12V-GppNHP disruption HTRF assay (Biological Example 1); type: binding
# T1 construct: Avi-KRAS G12V (1-169)
# T1 sequence (P01116 1-169 isoform P01116-2 G12V): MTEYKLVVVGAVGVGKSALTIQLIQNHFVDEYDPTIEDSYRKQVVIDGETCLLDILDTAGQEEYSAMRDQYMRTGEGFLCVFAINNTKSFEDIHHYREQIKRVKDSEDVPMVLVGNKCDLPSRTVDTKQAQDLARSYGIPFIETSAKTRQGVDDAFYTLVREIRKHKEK
# In short: (§1)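 Using HTRF, the loss of KRAS–effector RAF1 complex was quantified in 50 mM Tris pH 7.5 buffer with 100 mM NaCl and 0.1% BSA. The protein step and reagent step ran 1 h each at room temperature. Activity normalized with DMSO taken as 100%.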
# [2] = molecular target: T2, Avi-KRAS G12D (1-169) GppNHp/RAF1 RBD-3xFLAG (52-151) (Homo sapiens, UniProt P01116, G12D); assay: Raf1-KRAS G12D-GppNHP disruption HTRF assay (Biological Example 1); type: binding
# T2 construct: Avi-KRAS G12D (1-169)
# T2 sequence (P01116 1-169 isoform P01116-2 G12D): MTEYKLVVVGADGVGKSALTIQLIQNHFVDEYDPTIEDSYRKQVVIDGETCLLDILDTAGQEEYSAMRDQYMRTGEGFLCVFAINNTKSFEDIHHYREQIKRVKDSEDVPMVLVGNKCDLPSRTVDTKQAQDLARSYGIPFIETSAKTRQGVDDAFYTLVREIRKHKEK
# In short: as §1
# [3] = molecular target: T3, Avi-KRAS WT (1-169) GppNHp/RAF1 RBD-3xFLAG (52-151) (Homo sapiens, UniProt P01116); assay: Raf1-KRAS WT-GppNHP disruption HTRF assay (Biological Example 1); type: binding
# T3 construct: Avi-KRAS WT (1-169)
# T3 sequence (P01116 1-169 isoform P01116-2): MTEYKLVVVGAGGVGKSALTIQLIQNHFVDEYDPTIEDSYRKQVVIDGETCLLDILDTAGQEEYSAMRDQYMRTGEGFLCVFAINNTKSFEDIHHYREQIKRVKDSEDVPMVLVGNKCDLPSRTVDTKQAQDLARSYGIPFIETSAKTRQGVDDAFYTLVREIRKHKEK
# In short: as §1
# [4] = molecular target: T4, Avi-KRAS G12R (1-169) GppNHp/RAF1 RBD-3xFLAG (52-151) (Homo sapiens, UniProt P01116, G12R); assay: Raf1-KRAS G12R-GppNHP disruption HTRF assay (Biological Example 1); type: binding
# T4 construct: Avi-KRAS G12R (1-169)
# T4 sequence (P01116 1-169 isoform P01116-2 G12R): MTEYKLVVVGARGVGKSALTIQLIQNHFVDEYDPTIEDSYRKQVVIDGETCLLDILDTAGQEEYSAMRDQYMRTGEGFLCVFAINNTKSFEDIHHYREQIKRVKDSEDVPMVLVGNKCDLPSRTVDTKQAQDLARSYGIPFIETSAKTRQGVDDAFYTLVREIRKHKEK
# In short: as §1
# GP2d cells (KRAS G12D) = assay: Cell-based pERK HTRF assay in GP2d cell (Biological Example 2); conditions: GP2d, GP2d (KRAS G12D) cells, pERK HTRF
# In short: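 GP2d (KRAS G12D) cells were plated in DMEM/10% FBS and treated the next day for 60 min with compounds. Dosing used 9-point half-log series starting at 1 μM or 100 nM in 0.25% DMSO. Lysates were read by HTRF pERK (d2/Eu cryptate antibodies) after 4–24 h at room temperature, with excitation at 320 nm and emission at 615 nm.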
# [5] = KRAS G12V, GppNHp-loaded, class symbols
# [6] = KRAS G12D, GppNHp-loaded, class symbols
# [7] = KRAS WT, GppNHp-loaded, class symbols
# [8] = KRAS G12R, GppNHp-loaded, class symbols
# [9] = KRAS G12V, GppNHp-loaded, Table 11
# [10] = KRAS G12D, GppNHp-loaded, Table 11
# [11] = KRAS WT, GppNHp-loaded, Table 11
# [12] = KRAS G12R, GppNHp-loaded, Table 11
IC50 (SW620 cells (KRAS G12V); class symbols),"IC50 [1, 5]","IC50 [2, 6]","IC50 [3, 7]","IC50 [4, 8]",IC50 (GP2d cells (KRAS G12D); class symbols),IC50 (SW620 cells (KRAS G12V)),IC50 ([1]; KRAS G12V-GppNHp/RAF1 RBD HTRF),IC50 ([2]; KRAS G12D-GppNHp/RAF1 RBD HTRF),IC50 ([3]; KRAS WT-GppNHp/RAF1 RBD HTRF),IC50 ([4]; KRAS G12R-GppNHp/RAF1 RBD HTRF),IC50 (GP2d cells (KRAS G12D)),"IC50 [1, 9]","IC50 [2, 10]","IC50 [3, 11]","IC50 [4, 12]",Compound
< 100 nM,100 to 1000 nM,100 to 1000 nM,100 to 1000 nM,100 to 1000 nM,< 100 nM,–,–,–,–,–,–,–,–,–,–,N#Cc1c(N)sc2c(F)ccc(-c3c(C(F)(F)F)cc4c(N5CCn6nc(C(=O)N7CCC7)cc6C5)nc(OCC56CCCN5CC(F)C6)nc4c3F)c12 (stereo not drawn) [Compound 626]
< 100 nM,100 to 1000 nM,< 100 nM,< 100 nM,< 100 nM,< 100 nM,–,–,–,–,–,–,–,–,–,–,"CCN(c1nc(OC[C@@]23CCCN2C[C@H](F)C3)nc2c(F)c(-c3ccc(F)c4sc(N)c(C#N)c34)c(C(F)(F)F)cc12)[C@H]1C[C@H]2CN(C(C)C)C(=O)N2C1 (atropisomer, axis not shown) [Compound 784]"
–,–,–,–,–,–,< 100 nM,1000 to 10000 nM,1000 to 10000 nM,100 to 1000 nM,1000 to 10000 nM,< 100 nM,–,–,–,–,N#Cc1c(N)sc2c(F)ccc(-c3c(C(F)(F)F)cc4c(N5CCN6C(=O)OCC6C5)nc(OCC56CCCN5CC(F)C6)nc4c3F)c12 (stereo not drawn) [Compound 428]
–,–,–,–,–,–,< 100 nM,1000 to 10000 nM,100 to 1000 nM,100 to 1000 nM,1000 to 10000 nM,< 100 nM,–,–,–,–,N#Cc1c(N)sc2c(F)ccc(-c3c(C(F)(F)F)cc4c(N5[C@@H]6CO[C@H]7C6OC[C@H]75)nc(OC[C@@]56CCCN5C[C@H](F)C6)nc4c3F)c12 [Compound 382]
–,–,–,–,–,–,< 100 nM,–,–,–,–,< 100 nM,100 to 1000 nM,100 to 1000 nM,< 100 nM,100 to 1000 nM,CC(C)C(=O)N1CC[C@@H](N(C)c2nc(OC[C@@]34CCCN3C[C@H](F)C4)nc3c(F)c(-c4ccc(F)c5sc(N)c(C#N)c45)c(C(F)(F)F)cc23)[C@H]1C [Compound 261]
–,–,–,–,–,–,< 100 nM,100 to 1000 nM,100 to 1000 nM,100 to 1000 nM,100 to 1000 nM,< 100 nM,–,–,–,–,N#Cc1c(N)sc2c(F)ccc(-c3c(C(F)(F)F)cc4c(N5CCCCCC5)nc(OC[C@@]56CCCN5C[C@H](F)C6)nc4c3F)c12 [Compound 305]
< 100 nM,< 100 nM,< 100 nM,< 100 nM,< 100 nM,< 100 nM,–,–,–,–,–,–,–,–,–,–,"CCN(c1nc(OC[C@@]23CCCN2C[C@H](F)C3)nc2c(F)c(-c3ccc(F)c4sc(N)c(C#N)c34)c(C(F)(F)F)cc12)[C@H]1CCN(C(=O)[C@H](C)CO)C1 (atropisomer, axis not shown) [Compound 746]"
< 100 nM,100 to 1000 nM,< 100 nM,100 to 1000 nM,< 100 nM,< 100 nM,–,–,–,–,–,–,–,–,–,–,"CN(C)C(=O)N1CC[C@H](N(C)c2nc(OC[C@@]34CCCN3C[C@H](F)C4)nc3c(F)c(-c4ccc(F)c5sc(N)c(C#N)c45)c(C(F)(F)F)cc23)C1 (atropisomer, axis not shown) [Compound 755]"
< 100 nM,100 to 1000 nM,100 to 1000 nM,100 to 1000 nM,100 to 1000 nM,< 100 nM,–,–,–,–,–,–,–,–,–,–,CCN(c1nc(OC[C@]23C[C@@H](F)CN2CC2(CC2)C3)nc2c(F)c(-c3ccc(F)c4sc(N)c(C#N)c34)c(C(F)(F)F)cc12)[C@H]1CCN(C(=O)C(C)C)C1 [Compound 566]
–,–,–,–,–,–,< 100 nM,1000 to 10000 nM,100 to 1000 nM,1000 to 10000 nM,1000 to 10000 nM,< 100 nM,–,–,–,–,CN(C)C(=O)[C@H]1CC[C@@H](N(C)c2nc(OC[C@@]34CCCN3C[C@H](F)C4)nc3c(F)c(-c4ccc(F)c5sc(N)c(C#N)c45)c(C(F)(F)F)cc23)C1 [Compound 497]
< 100 nM,100 to 1000 nM,< 100 nM,100 to 1000 nM,< 100 nM,< 100 nM,–,–,–,–,–,–,–,–,–,–,CCN(c1nc(OCC23CCCN2CC(F)C3)nc2c(F)c(-c3ccc(F)c4sc(N)c(C#N)c34)c(C(F)(F)F)cc12)C1CCN(C(=O)c2ncon2)C1 (stereo not drawn) [Compound 754]
–,–,–,–,–,–,< 100 nM,100 to 1000 nM,100 to 1000 nM,100 to 1000 nM,100 to 1000 nM,< 100 nM,–,–,–,–,N#Cc1nnn2c1CN(c1nc(OC[C@@]34CCCN3C[C@H](F)C4)nc3c(F)c(-c4ccc(F)c5sc(N)c(C#N)c45)c(C(F)(F)F)cc13)CC2 [Compound 486]
–,–,–,–,–,–,< 100 nM,–,–,–,–,< 100 nM,100 to 1000 nM,100 to 1000 nM,100 to 1000 nM,100 to 1000 nM,C[C@@H]1C[C@H](O)CCN1c1nc(OC[C@@]23CCCN2C[C@H](F)C3)nc2c(F)c(-c3ccc(F)c4sc(N)c(C#N)c34)c(C(F)(F)F)cc12 [Compound 265]
< 100 nM,< 100 nM,< 100 nM,< 100 nM,< 100 nM,< 100 nM,–,–,–,–,–,–,–,–,–,–,"CCN(c1nc(OC[C@@]23CCCN2C[C@H](F)C3)nc2c(F)c(-c3ccc(F)c4sc(N)c(C#N)c34)c(C(F)(F)F)cc12)[C@H]1CCN(C(=O)C2COC2)C1 (atropisomer, axis not shown) [Compound 580]"
< 100 nM,< 100 nM,< 100 nM,< 100 nM,< 100 nM,< 100 nM,–,–,–,–,–,–,–,–,–,–,"CCN(c1nc(OC[C@@]23CCCN2C[C@H](F)C3)nc2c(F)c(-c3ccc(F)c4sc(N)c(C#N)c34)c(C(F)(F)F)cc12)[C@H]1C[C@H]2CN(C3CCC3)C(=O)N2C1 (atropisomer, axis not shown) [Compound 757]"
–,–,–,–,–,–,100 to 1000 nM,100 to 1000 nM,100 to 1000 nM,100 to 1000 nM,100 to 1000 nM,< 100 nM,–,–,–,–,CC(=O)N1CCC(N(C)c2nc(OC[C@@]34CCCN3C[C@H](F)C4)nc3c(F)c(-c4ccc(F)c5sc(N)c(C#N)c45)c(C(F)(F)F)cc23)CC1 [Compound 296]
–,–,–,–,–,–,100 to 1000 nM,–,–,–,–,100 to 1000 nM,> 10000 nM,1000 to 10000 nM,> 10000 nM,> 10000 nM,CC(=O)N1CC[C@H](N(C)c2nc(OC[C@@H]3CC4(CC4)CN3C)nc3c(F)c(-c4ccc(F)c5sc(N)c(C#N)c45)c(C(F)(F)F)cc23)[C@@H]1C [Compound 227]
–,–,–,–,–,–,100 to 1000 nM,–,–,–,–,< 100 nM,1000 to 10000 nM,1000 to 10000 nM,1000 to 10000 nM,1000 to 10000 nM,C[C@H]1COC[C@H](C)N1c1nc(OC[C@@]23CCCN2C[C@H](F)C3)nc2c(F)c(-c3ccc(F)c4sc(N)c(C#N)c34)c(C(F)(F)F)cc12 [Compound 200]
< 100 nM,< 100 nM,< 100 nM,< 100 nM,< 100 nM,< 100 nM,–,–,–,–,–,–,–,–,–,–,"CCN(c1nc(OC[C@@]23CCCN2C[C@H](F)C3)nc2c(F)c(-c3ccc(F)c4sc(N)c(C#N)c34)c(C(F)(F)F)cc12)[C@H]1CC(=O)N(CCOC)C1 (atropisomer, axis not shown) [Compound 815]"
< 100 nM,1000 to 10000 nM,1000 to 10000 nM,1000 to 10000 nM,1000 to 10000 nM,< 100 nM,–,–,–,–,–,–,–,–,–,–,"N#Cc1c(N)sc2c(F)ccc(-c3c(C(F)(F)F)cc4c(N(Cc5cccnc5N)C5CC5)nc(OC[C@@]56CCCN5C[C@H](F)C6)nc4c3F)c12 (atropisomer, axis not shown) [Compound 602]"
–,–,–,–,–,–,< 100 nM,100 to 1000 nM,100 to 1000 nM,100 to 1000 nM,100 to 1000 nM,< 100 nM,–,–,–,–,"C[C@@H]1Cn2nncc2CN1c1nc(OC[C@@]23CCCN2C[C@H](F)C3)nc2c(F)c(-c3ccc(F)c4sc(N)c(C#N)c34)c(C(F)(F)F)cc12 (atropisomer, axis not shown) [Compound 530]"
